Experimental data published in patent US8785483B2, “Methods for treating COPD” (The Board of Regents of the University of Texas System, priority 2010, dated 2014).

What was measured:
[1] = system: SAEC; experiment: Cytokines, chemokines and growth factors by Milliplex in SAEC culture media after CSE; format: cell-based, human; conditions: 24 h after CSE (50%)
Experimental: FIG. 2. CSE-induced changes in cytokine levels in SAEC prevented by aldose reductase (AR) inhibition. *p<0.01 Vs Control; **p<0.05 Vs CSE 50%; #p<0.001 Vs Control; ##p<0.01 Vs CSE 50% Primary human Small Airway Epithelial Cells (SAEC) obtained from Lonza (Walkersville, Md.) were normal human SAEC harvested from distal airspace of donor. The cells were cultured according to the supplier's instructions at 37° C. in humidified atmosphere containing 95% air and 5% CO2 in small airway epithelial basal medium (SABM) with supplements containing 52 μg/ml bovine pituitary extract, 0.5 ng/ml human recombinant epidermal growth factor (EGF), 0.5 μg/ml epinephrine, 1 μg/ml hydrocortisone, 10 μg/ml transferrin, 5 μg/ml insulin, 0.1 ng/ml retinoic acid (RA), 6.5 ng/ml triiodothyronine, 50 μg/ml Gentamicin/Amphotericin-B (GA-1000), and 50 μg/ml fatty acid-free bovine serum albumin (BSA). Research-grade cigarettes (1R3F) with a filter from the Kentucky Tobacco Research and Development Center at the University of Kentucky (Lexington, Ky.) were smoked to 0.5 cm above the filter in a fume hood, using a modification of the method developed by Carp and Janoff (Am Rev Respir Dis. 1978; 118(3):617-621). […] The levels of cytokines and chemokines in the supernatant were determined by Milliplex MAP kits according to the manufacturer's instructions (Millipore Corporation, Bellerica, Mass.)).

[2] = system: SPDEF; experiment: RT-PCR of SPDEF in IL-13-treated SAEC monolayer; format: cell-based, human; conditions: SAEC monolayer at ALI, IL-13 18 h
Experimental: FIGS. 6A-6B. AR inhibition prevents IL-13-induced expression of Mucin and transcription factor SPDEF in airway epithelial cell monolayer. (A) The airway epithelial cell monolayer at ALI was serum starved without or with fidarestat and incubated with IL-13 for 18 h. Total RNA was isolated and subsequently RT-PCR was performed to assess the expression of Muc5AC and SPDEF. The bar diagrams show densitometric analysis of the corresponding blots (n=4). *p<0.001 vs Control; **p<0.001 vs IL-13; (B) The monolayer of ciliated airway cells at ALI was treated with AR inhibitor for 24 h and subsequently incubated with IL-13 for 24 or 48 h. At the end of incubation, cell lysate was prepared and subjected to western blotting using antibodies against Muc5AC, Muc5B, and SPDEF. The membranes were stripped and re-probed with antibodies against GAPDH to show the equal loading of protein. A representative blot is shown (n=4). *p<0.0001 vs Control; **p<0.001 vs IL-13.
For air-liquid interface (ALI) culture, SAEC were seeded at 8.5×10^4 cells/12-mm-diameter PET transparent insert with […] pores (12-well millicell culture insert; Millipore) and pre-coated with rat tail collagen type-1 (Sigma-Aldrich). The cells were grown submerged in the differentiation medium as described earlier by Zhen et al. (Am J Respir Cell Mol Biol 36: 244-253, 2007). […]

NC(=O)[C@@H]1C[C@]2(NC(=O)NC2=O)c2cc(F)ccc2O1 [fidarestat, (2S,4S)-2-aminoformyl-6-fluoro-spiro[chroman-4,4′-imidazolidine]-2′,5′-dione]
prevention of CSE-induced increase in chemokines (G-CSF, MCP-1, GM-CSF, IP-10) and growth factors (TGF-α, VEGF) [1]: more than 50% | prevention of CSE-induced increase in cytokines (IL-1a, IL-8, TNF-α) [1]: significantly (p<0.05 and 0.01) prevented | IL-13-induced SPDEF mRNA levels [2]: decreased significantly
